Ends that are not written are not given here.
Legend:
B16 cells [1] = test: Flow cytometry of tumor-infiltrating immune cells after F1/F3 injection; type: in vivo, C57BL/6 mice; conditions: DAY 13, flow cytometry
Description: (§1) • 1. Experiment objects: 12 C57BL/6 mice were divided into 3 groups with 4 mice in each group. • 2. Experiment method: • 2.1 Detection of tumor weight: A. Each C57BL/6 mouse was subcutaneously inoculated with 4×10^5 B16 cells, and time of tumor bearing was recorded as DAY 0. On DAY 3, the three groups were respectively injected with 100 μL of PBS solution containing 30 μg of F1/F3 (i.e., Caerin 1.1/Caerin 1.9), 100 μL of PBS solution containing 30 μg of P3, and 100 μL of PBS solution for the negative control group every day, administered for 7 consecutive days; B. a modeling method was the same as above, there were 8 mouse in each group, which were killed at DAY 13, and the tumor was taken and weighed. • 2.2 Detection of cell activity: The experimental process was the same as that in 2.1, tumor tissues were taken and treated into single cell suspensions on DAY 13 for flow staining and detected by using a flow cytometer, and selected flow antibodies were as follows: FITC-CD45.2, APC-cy7-CD3e, Percp-cy5.5-CD4, PE-cy7-CD8a, APC-cy7-B220, PE-NK1.1, PE-F4/80, Percp-cy5.5-CD11b, and FVS510 dye. Changes of macrophage subtypes were detected, tumor tissues were taken and treated into single cell suspensions on DAY 13 for flow staining and detected by using the flow cytometer, and selected flow antibodies were as follows: FITC-CD45.2, PE-F4/80, Percp-cy5.5-CD11b, BV421-Ly6C, and FVS510 dye. • 3. In FIG. 3, A was the survival time of Caerin 1.1/Caerin 1.9 for combined treatment of melanoma-bearing mice, and B was weighted data of tumor size of each group.

B16 cells [2] = test: F1/F3 treatment of nude mice bearing tumor model; type: in vivo; conditions: 30 μg intratumoral for 7 days from DAY 3
[3] = CD47 and SIRPα expression in B16 tumor tissue by flow cytometry; type: in vivo, C57BL/6 mice; conditions: DAY 13, flow cytometry
Description: (§2) • 1. Experiment objects: 21 C57BL/6 mice were divided into 3 groups with 7 mice in each group. • 2. Experiment method: A modeling method was the same as that in Experiment example 3, the experiment was divided into a PBS group, a P3 group and an F1/F3 group, tumor tissues were taken and treated into single cell suspensions on DAY 13 for flow staining and detected by using a flow cytometer, two experiments were carried out continuously, and flow antibodies were selected as follows: FITC-CD45.2, FVS510 dye, and BV421-CD47. • 3. Experimental results: This is a summary of results of two independent experiments, and the specific experimental results were shown in FIG. 9.

CD47 = test: as above; type: in vivo, C57BL/6 mice; conditions: DAY 13, flow cytometry
Description: as §2

B16 cells [4] = test: In vivo B16 tumor model, intratumoral injection: survival time and tumor weight; design: species or system C57BL/6 mice; conditions: 30 μg injected daily for 7 days from DAY 3; alone
Description: as §1, with “Changes of macrophage subtypes were detected, tumor tissues were taken and treated into single cell suspensions on DAY 13 for flow staining and detected by using the flow cytometer, and selected flow antibodies were as follows: FITC-CD45.2, PE-F4/80, Percp-cy5.5-CD11b, BV421-Ly6C, and FVS510 dye. • 3. In FIG. 3, A was the survival time of Caerin 1.1/Caerin 1.9 for combined treatment of melanoma-bearing mice, and B was weighted data of tumor size of each group.” left out

m-MDSC = test: Sorted splenic m-MDSC, in vitro GMCSF stimulation culture; type: cell-based, C57BL/6 mice; conditions: 10 ng/ml GMCSF, three days culture, compared with the PBS group
Description: (§3) • 1. Experiment objects: 6 C57BL/6 mice were divided into 2 groups with 3 mice in each group. • 2. Experimental process: Each C57BL/6 mouse was subcutaneously inoculated with 4×10^5 B16 cells, and time of tumor bearing was recorded as DAY 0. The two groups were injected with 100 μL of PBS solution containing 30 μg of F1/F3 (i.e., Caerin 1.1/Caerin 1.9) respectively on DAY 3; and the negative control group was injected with 100 μL of PBS solution every day for consecutive 7 days. B16 tumor tissues were taken and treated into single cell suspensions on DAY 13 for flow staining and detected by using a flow cytometer. Selected antibodies were as follows: FITC-CD45.2, Percp-cy5.5-CD11b, APC-Ly6G, BV421-Ly6c, FVS510 dye, and PE-F4/80. A modeling method was the same as above, splenic organs of mice were taken and processed into single cell suspensions on DAY 13, m-MDSC was sorted by using a flow cytometer, and four groups were set up: a PBS group, a PBS+GMCSF group, an F(F1/F3) group, and an F(F1/F3)+GMCSF group. The sorted cells were counted, each group was provided with two multiple wells, with 100,000 cells each well, 10 ng/ml of GMCSF was added to each group, and after three days of stimulating culture, the cells were detected by using the flow cytometer. Selected antibodies were as follows: FITC-CD45.2, Percp-cy5.5-CD11b, APC-Ly6G, BV421-Ly6c, FVS510 dye, and PE-F4/80. • 3. […]

B16 cells [5] = test: MTT assay for B16 cell survival; type: cell-based; conditions: B16 cells cultured overnight with F1/F3 at 0-20 μg/mL, MTT kit
Description: (§4) • 1. An MTT assay was used to detect cell survival condition: 7×10^4 B16 cells per well were cultured overnight with F1/F3 at different concentrations (0, 6, 8, 10, 12, 14, 16, 18, 20 μg/mL) in 4 duplicate wells, and the cell survival condition was detected by using an MTT kit (a product number: C0009M) and an IC50 value was calculated by drawing. Latest results of two independent experiments were shown. • 2. Detection of cell apoptosis: it was divided into a test group and a control group, and the B16 cells were cultured with a complete medium (composed of 1640 basic medium+fetal bovine serum from South American+double antibody (mixed with penicillin and streptomycin at a ratio of 1:1) at a volume ratio of 90:9:1), where Caerin 1.1/Caerin 1.9 was added to the test group with a final concentration of 10 μg/mL, and P3 was added to the control group with a same final concentration of 10 μg/mL. The cells were cultured overnight in a 5% CO2 incubator at 37° C., and their apoptosis conditions were detected by an apoptosis kit (an Annexin V-EGFP apoptosis detection kit, with a product number: C1067M). II. Experimental Results: • 1. In FIG. 1, A represented the cell survival condition at different concentrations, and B represented a calculated survival rate. […] In FIG. 2, A was a cell apoptosis distribution diagram, and B was a statistical analysis result.

B16 cells [6] = test: MDSC and macrophage proportions in B16 tumor tissue by flow cytometry; type: in vivo, C57BL/6 mice; conditions: 30 μg F1/F3 daily for 7 days, tumor DAY 13, versus PBS
Description: as §3

B16 cells [7] = test: Apoptosis detection (Annexin V-EGFP kit) in B16 cells; type: cell-based; conditions: 10 μg/mL, cultured overnight, versus P3 control
Description: as §4

## Caerin 1.1/Caerin 1.9: Caerin 1.1 and Caerin 1.9 polypeptides used together, mass ratio 1:1 (chain 1 GLLSVLGSVAKHVLPHVLPHVVPVIAEHL-NH2; chain 2 GLFGVLGSIAKHVLPHVVPVIAEKL-NH2; not fully specified; ends and bridges not checked)
B16 cells [1]
  number of tissue-resident macrophages for inhibiting tumor immunity: decreased
B16 cells [1]; tumor tissue
  expression of INFα receptors in macrophages: increased
  number of CD8+T cells and CD4+T cells: increased
  number of inflammatory macrophages for promoting tumor immunity: increased
  number of macrophages: increased
B16 cells [2]
  survival time of tumor-bearing nude mice: significantly prolonged
[3]
  expression of SIRPα on macrophages: decreased
CD47
  expression of CD47 on tumor cells: increased obviously
B16 cells [4]
  tumor growth in vivo (survival time, tumor weight): effectively inhibit tumor growth
m-MDSC
  macrophages after GMCSF stimulus differentiation of splenic m-MDSC: more macrophages
B16 cells [5]
  IC50 (IC50 half lethal dose), cell survival: 11.76 µg/mL
B16 cells [6]
  proportion of MDSC, m-MDSC and PMN-MDSC: tended to decrease
  proportion of tumor macrophages in CD45.2+ cells: rising trend
B16 cells [7]
  apoptosis of B16 cells: significant apoptosis-inducing effect

From patent publication US12702702B2, “Application of Caerin 1.1/1.9 combined with anti-CD47 antibody in preparing drug for treating melanoma” (WNL BIOMED TECH PTY. LTD., priority 2022, dated 2026)
